According to PubChem BioAssay (NCI):
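Cultured in 96-well plates, cells were exposed to test compound for 48 hours across five concentrations. Abbreviation: GI50, concentration required for 50% inhibition of growth. At the TGI there is no net growth.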

Experiments:
Assay in all cases: NCI anticancer screen, dose series, 48 h; in the data active = GI50 below about 0.43 µM; inactive = the rest
NCI-H23 lung = tested on: NCI-H23 lung
NCI-H460 lung = tested on: NCI-H460 lung
NCI-H522 lung = tested on: NCI-H522 lung
NCI/ADR-RES ovarian = tested on: NCI/ADR-RES ovarian
OVCAR-3 ovarian = tested on: OVCAR-3 ovarian
OVCAR-4 ovarian = tested on: OVCAR-4 ovarian
OVCAR-5 ovarian = tested on: OVCAR-5 ovarian
OVCAR-8 ovarian = tested on: OVCAR-8 ovarian
PC-3 prostate = tested on: PC-3 prostate
RPMI-8226 leukemia = tested on: RPMI-8226 leukemia
RXF 393 renal = tested on: RXF 393 renal
SF-268 CNS = tested on: SF-268 CNS
SF-295 CNS = tested on: SF-295 CNS
SF-539 CNS = tested on: SF-539 CNS
SK-MEL-2 melanoma = tested on: SK-MEL-2 melanoma
SK-MEL-28 melanoma = tested on: SK-MEL-28 melanoma
SK-MEL-5 melanoma = tested on: SK-MEL-5 melanoma
SK-OV-3 ovarian = tested on: SK-OV-3 ovarian
SN12C renal = tested on: SN12C renal
SNB-19 CNS = tested on: SNB-19 CNS
SNB-75 CNS = tested on: SNB-75 CNS
SR leukemia = tested on: SR leukemia
SW-620 colon = tested on: SW-620 colon
T-47D breast = tested on: T-47D breast
TK-10 renal = tested on: TK-10 renal
U251 CNS = tested on: U251 CNS
UACC-257 melanoma = tested on: UACC-257 melanoma
UO-31 renal = tested on: UO-31 renal

COc1ccc(N2CCN(CC(=O)N3CCN(c4nnc(-c5ccc(Cl)cc5)c(-c5ccc(Cl)cc5)n4)CC3)CC2)cc1
17.3 µM: TGI (SF-539 CNS)
> 100 µM: TGI (NCI-H23 lung) | TGI (NCI-H460 lung) | TGI (NCI-H522 lung) | TGI (NCI/ADR-RES ovarian) | TGI (OVCAR-3 ovarian) | TGI (OVCAR-4 ovarian) | TGI (OVCAR-5 ovarian) | TGI (OVCAR-8 ovarian) | TGI (PC-3 prostate) | TGI (RPMI-8226 leukemia) | TGI (SF-268 CNS) | TGI (SF-295 CNS) | TGI (SK-MEL-2 melanoma) | TGI (SK-MEL-28 melanoma) | TGI (SK-OV-3 ovarian) | TGI (SN12C renal) | TGI (SNB-19 CNS) | TGI (SW-620 colon) | TGI (T-47D breast) | TGI (TK-10 renal) | TGI (U251 CNS) | TGI (UACC-257 melanoma) | TGI (UO-31 renal)
8.65 µM: TGI (SR leukemia)
inactive: GI50 (NCI-H23 lung) 35.9 µM | GI50 (NCI-H460 lung) 7 µM | GI50 (NCI-H522 lung) 9.2 µM | GI50 (NCI/ADR-RES ovarian) > 100 µM | GI50 (OVCAR-3 ovarian) 11.3 µM | GI50 (OVCAR-4 ovarian) 8.8 µM | GI50 (OVCAR-5 ovarian) > 100 µM | GI50 (OVCAR-8 ovarian) 22.1 µM | GI50 (PC-3 prostate) 6.56 µM | GI50 (RPMI-8226 leukemia) 6.05 µM | GI50 (RXF 393 renal) 3.98 µM | GI50 (SF-268 CNS) > 100 µM | GI50 (SF-295 CNS) 7.09 µM | GI50 (SF-539 CNS) 3.66 µM | GI50 (SK-MEL-2 melanoma) 25.8 µM | GI50 (SK-MEL-28 melanoma) 96.8 µM | GI50 (SK-MEL-5 melanoma) 5.52 µM | GI50 (SK-OV-3 ovarian) > 100 µM | GI50 (SN12C renal) 24.8 µM | GI50 (SNB-19 CNS) > 100 µM | GI50 (SNB-75 CNS) 13.2 µM | GI50 (SR leukemia) 2560 nM | GI50 (SW-620 colon) 46.3 µM | GI50 (T-47D breast) 3.64 µM | GI50 (TK-10 renal) 9.18 µM | GI50 (U251 CNS) 10.6 µM | GI50 (UACC-257 melanoma) 18.9 µM | GI50 (UO-31 renal) 2800 nM
52.4 µM: TGI (SK-MEL-5 melanoma)
23.7 µM: TGI (RXF 393 renal)
55.4 µM: TGI (SNB-75 CNS)
